# Legend:
# [1] = tested on: A. planipennis antennae; test: EAG dose-response study; set-up: species or system Agrilus planipennis; details: for EAG responsiveness of female antennae compared with male antennae: particularly at higher doses, P<0.0001; for EAG response of female antennae, (3Z)- vs (3E)-lactone: stimulus doses 0.01-100 μg, P=0.91
# Description: EAG analyses were made by methods and equipment generally described by Cossé & and Bartelt (2000). EAG connections were made by inserting a glass-pipette silver-grounding electrode into the back of an excised beetle head. A second glass-pipette silver-recording probe was placed in contact with the distal end of one antenna. Both pipettes were filled with Beadle-Ephrussi (Ephrussi and Beadle 1936) saline.
# For the EAG-dose-response study, (3Z)- and (3E)-lactones were purified (99.9% purity by GC/MS) by high performance liquid chromatography (HPLC) using a Waters 515 pump, a Waters R401 refractive index detector, and a 25 cm by 0.46 cm i.d. silica column (Adsorbosphere Silica 5 μm, Alltech, Deerfield, Ill.), treated with silver nitrate as described by Heath and Sonnett (1980). Solvent was 8% ether in hexane. Ten micro liters of serially diluted solutions (methylene chloride) of synthetic (3Z)-lactone and (3E)-lactone were applied to filter paper strips (0.5 cm×5 cm, Whatman no. 1). The filter paper strips were placed in 14-cm-long Pasteur pipettes, hereafter referred to as stimulus cartridges, after 5 min at room temperature. Stimulus doses tested were 0.01, 0.1, 1, 10, and 100 μg. Male and female antennae were exposed to single 0.2s puffs of odor-bearing air at 5 ml/s by placing the tip of an stimulus cartridge into a hole of a glass tube (0.7 cm ID×20 cm), 10 cm from the outlet and 11 cm away from the antennal preparation. Airflow through the glass tube was humidified and set at 10 ml/s. Puff duration and airflow speeds were maintained by a stimulus flow controller (SFC-2, Syntech, Hilversum, The Netherlands). Stimuli cartridges were selected in random order, beginning with the lowest dosages and working upward to the highest dosages. Each puffed dosage was preceded and followed by a puff from a solvent blank cartridge (filter paper plus solvent). To compensate for possible deterioration of the antennal preparation, a standard control compound, geranyl acetone (1 μg dose) preceded dosages of stimuli compound. EAG amplitudes were normalized according to the responses to geranyl acetone by dividing the amplitude of the EAG generated by the test compounds by that of geranyl acetone. Dose-response series were replicated, using different antennal preparation for each replication, and the EAG responses were expressed as a percentage of the EAG responses to geranyl acetone. Each antennal preparation was tested with freshly prepared sets of stimuli cartridges. Male and female EAG responses were submitted to analysis of variance (ANOVA) using Statistica for Windows software (StatSoft Inc. Tulsa, Okla.)).
# [2] = tested on: A. planipennis antennae; test: GC-EAD analysis; set-up: species or system Agrilus planipennis; details: synthetic mixture of (3E)- and (3Z)-lactones
# Method: A Varian CP-3380 gas chromatograph with FID detector was modified for use with a GC-EAD signal recording device (IDAC-232). EAG data were analyzed using Syntech GC-EAD software v.2.6 (SYNTECH, The Netherlands). The column used for analysis was a Supelco SPB-5 capillary (30 m×0.32 mm×0.25 μm film) in the splitless mode with helium as carrier gas. The injection port was at 220° C. and the oven temperature was programmed from 70° C., held for 1 min and then increased at 10° C./min to 240° C. and held for 30 min. A number of GC-EAD runs on male and female volatiles were carried out. Both the (3Z)-lactone and (3E)-lactone were diluted to 10 μg/ml in hexane; 1 μl of diluted pheromone was injected for each GC-EAD run.
# Ten nanograms was injected for the GC-EAD analysis consisting of 90% (3Z)-lactone and 10% (3E)-lactone using a DB-1 (15 m×0.25 mm ID, 1 μm film) capillary column (J&W Scientific, Folsom, Calif.). The GC oven temperature program was 50° C. for 1 min, then increased at 20° C./min and held at 280° C. for 2 min. The GC-EAD responses of five male and five female EAB antennae were analyzed.
# [3] = Effect of light on (3Z)-lactone (isomerization); type: physicochemical; details: for isomerization in direct sunlight: quartz cuvette or surface of female cadavers, 2-3 days
# Method: To determine whether light would promote the isomerization from (3Z) to (3E)-lactone, 20 mg of (3Z)-lactone was placed neat on a glass slide 10 mm below a UV light (UVG-54 handheld UV-lamp, 254 nm, 6w; UVP Upland Calif., USA) for three d. Subsamples (taken as 1 mg in a pipette) were analyzed by GC/MS at regular intervals and the ratio of (3E):(3Z)-lactone was recorded. In addition, 6 mg of each of (3Z)- and (3E)-lactones (neat) were coated on the quartz surface of a cuvette and exposed outdoors to sunlight at 11° C. mean temperature for 9 d for an average of 5 h a day. Finally, (3Z)-lactone was coated (4 mg) on the dorsal surface of abdomen and […] of 3 female EAB cadavers that were exposed to sunlight for 6 h per day for 1, 2 or 3 d at 10° C. mean temperature; cadavers were stored at 4° C. between sunny days. The lactones were removed from cuvettes and cadavers with hexane washing and analysed by GC/MS to determine the E:Z ratio.
Compound,EAG responsiveness of female antennae compared with male antennae [1],"EAG response of female antennae, (3Z)- vs (3E)-lactone [1]",GC-FID/EAD responses of male and female antennae [2],effect of storing in a pyrex container (filters out UV-light) [3],"conjugated isomer formed on UV exposure ([3]; UV lamp 254 nm, GC/MS)","(3E):(3Z) ratio, initial lactone sample ([3]; before UV exposure)","(3E):(3Z) ratio after exposure to UV light ([3]; neat, UV lamp 254 nm, three d)",stability to isomerization under normal laboratory fluorescent lighting ([3]; preliminary studies),isomerization in direct sunlight [3]
"O=C1C/C=C\CCCCCCCCO1 [(3Z)-lactone, (3Z)-dodecen-12-olide]",more responsive,did not respond differently,significant responses,preventing photoisomerisation,< 1%,0.028,0.60,very stable,very slow isomerization
"O=C1C/C=C/CCCCCCCCO1 [(3E)-lactone, (3E)-dodecen-12-olide]",more responsive,did not respond differently,significant responses,–,–,–,–,–,very slow isomerization
